Assay results published in PMC11995724, “Antibiotic target discovery by integrated phenotypic and activity-based profiling of electrophilic fragments” (Cell chemical biology, 2025).

Test: in vitro
Settings: human, hek293t cells

Point of comparison: `C=CC(=O)Nc1ccc(C(=O)N2CCC(C)(C)S(=O)(=O)CC2)cc1` [3-E04, N-[4-(7,7-dimethyl-1,1-dioxo-1lambda6,4-thiazepane-4-carbonyl)phenyl]prop-2-enamide], viability at 48 h, 25 µM 78.6%. Against it:
- C=CC(=O)NC(C)Cn1cncn1 (centres unmarked) [3-C11, N-[1-(1H-1,2,4-triazol-1-yl)propan-2-yl]prop-2-enamide] — lower, 37.9%
- C=CC(=O)NCCC1CCCS1(=O)=O (centres unmarked) [3-C12, N-[2-(1,1-dioxo-1lambda6-thiolan-2-yl)ethyl]prop-2-enamide] — higher, 86.1%
- C=CC(=O)N1CCOC(Cn2nc(C)cc2C)C1 (centres unmarked) [3-C13, 1-{2-[(3,5-dimethyl-1H-pyrazol-1-yl)methyl]morpholin-4-yl}prop-2-en-1-one] — lower, 40.5%
- C=CC(=O)N[C@H]1C[C@H](C)S(=O)(=O)c2sccc21 [3-C14, N-[(2S,4S)-2-methyl-1,1-dioxo-2H,3H,4H-1lambda6-thieno[2,3-b]thiopyran-4-yl]prop-2-enamide] — higher, 84.1%
- C=CC(=O)N1CCC(C(=O)NCc2nnc(C(C)C)n2C)CC1 [3-C16, N-{[4-methyl-5-(propan-2-yl)-4H-1,2,4-triazol-3-yl]methyl}-1-(prop-2-enoyl)piperidine-4-carboxamide] — lower, 78.5%
- C=CC(=O)N1CCC(C(=O)N2CCC(C(=O)NCC(C)C)CC2)CC1 [3-C17, N-(2-methylpropyl)-1-[1-(prop-2-enoyl)piperidine-4-carbonyl]piperidine-4-carboxamide] — lower, 34.6%
- C=CC(=O)N1CCC(C(=O)NCCO)CC1 [3-C18, N-(2-hydroxyethyl)-1-(prop-2-enoyl)piperidine-4-carboxamide] — lower, 72.9%
- C=CC(=O)N1CCC(C(=O)N2Cc3ccccc3C[C@H]2C(N)=O)CC1 [3-C19, (3S)-2-[1-(prop-2-enoyl)piperidine-4-carbonyl]-1,2,3,4-tetrahydroisoquinoline-3-carboxamide] — lower, 29.6%
- C=CC(=O)N(C)CC(=O)N1CCCC(CC(N)=O)CC1 (centres unmarked) [3-C20, N-{2-[4-(carbamoylmethyl)azepan-1-yl]-2-oxoethyl}-N-methylprop-2-enamide] — lower, 68.6%
- C=CC(=O)NCCNS(=O)(=O)c1cc(C)sc1C [3-C21, N-[2-(2,5-dimethylthiophene-3-sulfonamido)ethyl]prop-2-enamide] — lower, 34.6%
- C=CC(=O)NCc1cnoc1C [3-C22, N-[(5-methyl-1,2-oxazol-4-yl)methyl]prop-2-enamide] — lower, 51.5%
- C=CC(=O)N(CC)CC(=O)N1CCN(c2ccc(C#N)cc2F)CC1 [3-D03, N-{2-[4-(4-cyano-2-fluorophenyl)piperazin-1-yl]-2-oxoethyl}-N-ethylprop-2-enamide] — lower, 74.4%
- C=CC(=O)NCc1nc(-c2ccc(F)cc2)n[nH]1 [3-D04, N-{[3-(4-fluorophenyl)-1H-1,2,4-triazol-5-yl]methyl}prop-2-enamide] — higher, 95.1%
- C=CC(=O)Nc1cc(NC(=O)C2(OC)CCOC2)ccc1F (centres unmarked) [3-D05, N-[4-fluoro-3-(prop-2-enamido)phenyl]-3-methoxyoxolane-3-carboxamide] — lower, 75.8%
- C=CC(=O)Nc1cn(CC(F)(F)F)nc1C [3-D06, N-[3-methyl-1-(2,2,2-trifluoroethyl)-1H-pyrazol-4-yl]prop-2-enamide] — lower, 55.3%
- C=CC(=O)NCCC(=O)N1CCN(c2ccc(C#N)cc2F)CC1 [3-D07, N-{3-[4-(4-cyano-2-fluorophenyl)piperazin-1-yl]-3-oxopropyl}prop-2-enamide] — lower, 56.6%
- C=CC(=O)NCCC(=O)NC1CCSc2ccc(F)cc21 (centres unmarked) [3-D08, N-{2-[(6-fluoro-3,4-dihydro-2H-1-benzothiopyran-4-yl)carbamoyl]ethyl}prop-2-enamide] — lower, 70.7%
- C=CC(=O)NCc1cn(C2CCC2)nn1 [3-D09, N-[(1-cyclobutyl-1H-1,2,3-triazol-4-yl)methyl]prop-2-enamide] — lower, 48.7%
- C=CC(=O)NC(C)Cn1cc(C(=O)O)cn1 (centres unmarked) [3-D10, 1-[2-(prop-2-enamido)propyl]-1H-pyrazole-4-carboxylic acid] — higher, 96%
- C=CC(=O)N(C)CC1(O)CCc2ccccc21 (centres unmarked) [3-D11, N-[(1-hydroxy-2,3-dihydro-1H-inden-1-yl)methyl]-N-methylprop-2-enamide] — lower, 58.6%
- C=CC(=O)N1CCC(C(=O)NCc2cn3ccc(C)nc3n2)CC1 [3-D12, N-({7-methylimidazo[1,2-a]pyrimidin-2-yl}methyl)-1-(prop-2-enoyl)piperidine-4-carboxamide] — lower, 75.3%
- C#CCN(C(=O)c1ccc(NC(=O)C=C)cc1)C1CCCCC1 [3-D13, N-cyclohexyl-4-(prop-2-enamido)-N-(prop-2-yn-1-yl)benzamide] — lower, 15.9%
- C=CC(=O)NCc1ccc2oc(=O)[nH]c2c1 [3-D14, N-[(2-oxo-2,3-dihydro-1,3-benzoxazol-5-yl)methyl]prop-2-enamide] — higher, 103%
- C=CC(=O)N(C)CC(=O)N1CCCc2ccccc21 [3-D15, N-methyl-N-[2-oxo-2-(1,2,3,4-tetrahydroquinolin-1-yl)ethyl]prop-2-enamide] — lower, 65.7%
- C=CC(=O)Nc1cccc(NS(=O)(=O)C2CC2)c1 [3-D16, N-(3-cyclopropanesulfonamidophenyl)prop-2-enamide] — higher, 80.5%
- C=CC(=O)N1CCCC(S(=O)(=O)NC)C1 (centres unmarked) [3-D17, N-methyl-1-(prop-2-enoyl)piperidine-3-sulfonamide] — lower, 67.5%
- C=CC(=O)N[C@H]1C[C@H](S(C)(=O)=O)C1 [3-D18, N-[(1r,3r)-3-methanesulfonylcyclobutyl]prop-2-enamide] — higher, 83.6%
- C=CC(=O)N1CCC=C(c2cn(C(C)C)nn2)CC1 [3-D19, 1-{4-[1-(propan-2-yl)-1H-1,2,3-triazol-4-yl]-2,3,6,7-tetrahydro-1H-azepin-1-yl}prop-2-en-1-one] — lower, 78.1%
- C=CC(=O)N1CCN(S(=O)(=O)CC)CC1 [3-D20, 1-[4-(ethanesulfonyl)piperazin-1-yl]prop-2-en-1-one] — higher, 106%
- C=CC(=O)NC(c1nc(C)cs1)C1CC1 (centres unmarked) [3-D21, N-[cyclopropyl(4-methyl-1,3-thiazol-2-yl)methyl]prop-2-enamide] — lower, 74.9%
- C=CC(=O)N1CCCc2c(OCC(N)=O)cccc21 [3-D22, 2-{[1-(prop-2-enoyl)-1,2,3,4-tetrahydroquinolin-5-yl]oxy}acetamide] — higher, 95.2%
- C=CC(=O)NC[C@@H]1CCCN1c1ccccc1 [3-E03, N-{[(2S)-1-phenylpyrrolidin-2-yl]methyl}prop-2-enamide] — lower, 60.1%
- C=CC(=O)N1CCC(c2nc(C)no2)CC1 [3-E05, 1-[4-(3-methyl-1,2,4-oxadiazol-5-yl)piperidin-1-yl]prop-2-en-1-one] — lower, 49.7%
- C=CC(=O)N1CCC(C(=O)N2CCOc3cc(F)ccc3C2)CC1 [3-E06, 1-[4-(8-fluoro-2,3,4,5-tetrahydro-1,4-benzoxazepine-4-carbonyl)piperidin-1-yl]prop-2-en-1-one] — lower, 67.9%
- C=CC(=O)N1CCC(C(=O)NCCc2cc[nH]n2)CC1 [3-E07, 1-(prop-2-enoyl)-N-[2-(1H-pyrazol-3-yl)ethyl]piperidine-4-carboxamide] — lower, 34.2%
- C=CC(=O)N1CCC(C(=O)N2CCC(OC)(C(F)(F)F)CC2)CC1 [3-E08, 1-{4-[4-methoxy-4-(trifluoromethyl)piperidine-1-carbonyl]piperidin-1-yl}prop-2-en-1-one] — higher, 98.2%
- C=CC(=O)N1CCOC(c2cccc(OC)c2)C1 (centres unmarked) [3-E09, 1-[2-(3-methoxyphenyl)morpholin-4-yl]prop-2-en-1-one] — lower, 34.5%
- C=CC(=O)NCCC(=O)N1CCCC1c1cn(C)nc1C (centres unmarked) [3-E10, N-{3-[2-(1,3-dimethyl-1H-pyrazol-4-yl)pyrrolidin-1-yl]-3-oxopropyl}prop-2-enamide] — higher, 95.2%
- C=CC(=O)N1CCCC2(CCCOC2)C1 (centres unmarked) [3-E11, 1-{2-oxa-8-azaspiro[5.5]undecan-8-yl}prop-2-en-1-one] — lower, 46.3%
- C=CC(=O)N1CCC([C@@H](C)O)CC1 [3-E12, 1-{4-[(1R)-1-hydroxyethyl]piperidin-1-yl}prop-2-en-1-one] — higher, 104%
- C=CC(=O)Nc1ccc(C(=O)N2CCCCC2c2n[nH]c(C)n2)cc1 (centres unmarked) [3-E13, N-{4-[2-(5-methyl-1H-1,2,4-triazol-3-yl)piperidine-1-carbonyl]phenyl}prop-2-enamide] — lower, 34.9%
- C=CC(=O)N(C)CC(=O)NC(C)(C)c1nc(C)cs1 [3-E14, N-methyl-N-({[2-(4-methyl-1,3-thiazol-2-yl)propan-2-yl]carbamoyl}methyl)prop-2-enamide] — higher, 87.9%
- C=CC(=O)N1CCCC(CNC(C)=O)C1 (centres unmarked) [3-E15, N-{[1-(prop-2-enoyl)piperidin-3-yl]methyl}acetamide] — lower, 46.4%
- C=CC(=O)N1CCC(C(=O)Nc2ccc3c(c2)CCN3C(N)=O)CC1 [3-E16, 5-[1-(prop-2-enoyl)piperidine-4-amido]-2,3-dihydro-1H-indole-1-carboxamide] — higher, 101%
- C=CC(=O)N1CCC(C(=O)N[C@]2(C(=O)OC)CC[C@@H](C)CC2)CC1 [3-E17, methyl (1r,4r)-4-methyl-1-[1-(prop-2-enoyl)piperidine-4-amido]cyclohexane-1-carboxylate] — lower, 57%
- C=CC(=O)NCc1ncoc1C(F)(F)F [3-E18, N-{[5-(trifluoromethyl)-1,3-oxazol-4-yl]methyl}prop-2-enamide] — higher, 93.1%
- C=CC(=O)NCc1ccc(C(=O)N2CCCC(c3nnc[nH]3)C2)cc1 (centres unmarked) [3-E19, N-({4-[3-(4H-1,2,4-triazol-3-yl)piperidine-1-carbonyl]phenyl}methyl)prop-2-enamide] — lower, 34.3%
- C=CC(=O)N1CCC(C(=O)Nc2ccc(N)c([N+](=O)[O-])c2)CC1 [3-E20, N-(4-amino-3-nitrophenyl)-1-(prop-2-enoyl)piperidine-4-carboxamide] — lower, 56.7%
- C=CC(=O)N(CC)CC(=O)N1CCNC(=O)CC1c1ccccc1 (centres unmarked) [3-E21, N-ethyl-N-[2-oxo-2-(5-oxo-7-phenyl-1,4-diazepan-1-yl)ethyl]prop-2-enamide] — lower, 33.1%
